Results from PubChem BioAssay (NCI).
Where “and” joins values, the source holds several entries; their conditions need not be identical. Identical values can stand only once.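 Tested at 5 concentrations; 48 h exposure; 96-well plates; endpoints linearly interpolated, else capped at highest concentration. GI50 is the concentration that inhibits growth by half. TGI denotes the concentration required for complete inhibition of growth.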

Experiments:
Assay in all cases: NCI tumour cell line growth inhibition, 48 h
SK-MEL-28 melanoma = test system: SK-MEL-28 melanoma
HOP-62 NSCLC = test system: HOP-62 NSCLC
M14 melanoma = test system: M14 melanoma
MDA-MB-435 = test system: MDA-MB-435
A498 renal = test system: A498 renal
CCRF-CEM leukemia = test system: CCRF-CEM leukemia
SR leukemia = test system: SR leukemia
IGROV1 ovarian = test system: IGROV1 ovarian
T-47D breast = test system: T-47D breast
OVCAR-8 ovarian = test system: OVCAR-8 ovarian

Row | SMILES | GI50 (SK-MEL-28 melanoma) | TGI (SK-MEL-28 melanoma) | GI50 (HOP-62 NSCLC) | TGI (HOP-62 NSCLC) | GI50 (M14 melanoma) | TGI (M14 melanoma) | GI50 (MDA-MB-435) | TGI (MDA-MB-435) | GI50 (A498 renal) | TGI (A498 renal) | GI50 (CCRF-CEM leukemia) | TGI (CCRF-CEM leukemia) | GI50 (SR leukemia) | TGI (SR leukemia) | GI50 (IGROV1 ovarian) | TGI (IGROV1 ovarian) | GI50 (T-47D breast) | TGI (T-47D breast) | GI50 (OVCAR-8 ovarian) | TGI (OVCAR-8 ovarian)
1 | Nc1cc(N)c2nc(NCCc3ccc(Cl)c(Cl)c3)cnc2c1 | 13.4 µM | 26.2 µM | 19.8 µM | 38 µM | 18 µM | 38.5 µM | 3.96 µM | 13.6 µM | 20.3 µM | 34.5 µM | 2.02 µM | 5.05 µM | 3.9 µM | 20.9 µM | 14.5 µM | 28.7 µM | 2.83 µM | 8.65 µM | 12.7 µM | 25.3 µM
2 | COc1cc(C(=O)NN=C2c3ccccc3-c3ccccc32)cc(OC)c1OC | 6.26 µM | > 100 µM | 5.15 µM | 35.9 µM | 2.58 µM | 92.4 µM | 0.3 µM | 1.46 µM | 2.95 µM | 13.9 µM | 3.53 µM | > 100 µM | 0.339 µM | 10.6 µM | 3.47 µM | 32.9 µM | 3.9 µM | 65.5 µM | 4.93 µM | 39 µM
3 | Nc1nc(N)c2c(n1)CCC(S(=O)(=O)c1ccc3ccccc3c1)C2 (configuration not stated) | – | > 100 µM | – | > 100 µM | – | 61 µM | – | > 100 µM | – | 40 µM | – | > 100 µM | – | 17.8 µM | 1.94 µM | > 100 µM | – | > 100 µM | – | > 100 µM
4 | O=C(CN1CCN(C(=O)c2ccco2)CC1)Nc1ccc(Cl)cc1C(=O)c1ccccc1Cl | 11.6 µM | 23.9 µM | 16.9 µM | 35.6 µM | 12.5 µM | 28.1 µM | 5.83 µM | 20.6 µM | 6.8 µM | 22.9 µM | 5.28 µM | > 100 µM | 0.896 µM | 2.76 µM | 4.23 µM | 17.6 µM | 2.32 µM | 15.4 µM | 11.5 µM | 53.8 µM
5 | O=C(CCN1CCCN(c2cnc3ccccc3n2)CC1)c1csc2ccccc12 | 20.6 µM | 37.1 µM | 28.1 µM | 77.3 µM | 19.8 µM | 39.3 µM | 18.1 µM | 32.2 µM | 96.7 µM | > 100 µM | 12.5 µM | 63.1 µM | 24 µM | 56.7 µM | 16.2 µM | 31.2 µM | 11 µM | 25.3 µM | 21.6 µM | 48.4 µM
6 | CC1[C@@H]2CC=C3[C@H]4CCC5Cc6nc7c(nc6C[C@@]5(C)C4CC(=O)[C@]32CO[C@]12OC(C)(C)CC2O)CC1CC[C@@H]2C3=C[C@H]4O[C@@]5(O[C@@](C)(CO)C[C@@H]5O)C(C)[C@@]4(O)[C@]3(C)[C@@H](O)CC2[C@]1(C)C7 (some centres not stated) | 0.00062 µM | 0.00273 µM | 0.00024 µM and 0.000365 µM | 0.00248 µM and 0.00609 µM | 0.00131 µM | 0.0124 µM | 0.00111 µM | 0.0168 µM | 0.000721 µM | 0.0187 µM and 0.0124 µM | 0.000309 µM and 0.000365 µM | 0.0114 µM and 0.00453 µM | 0.000181 µM | 0.00856 µM | 0.00399 µM and 0.0052 µM | – | 0.246 µM | – | – | 0.745 µM and > 3.65 µM
7 | O=C(Nc1cccc(-n2cc(-c3ccncc3)c(-c3ccc(Cl)c(O)c3)n2)c1)Nc1ccc(Cl)c(Cl)c1 | 1.46 µM | 9.85 µM | 2.08 µM | 17.6 µM | 1.18 µM | 6.97 µM | 1.1 µM | 6.05 µM | 0.94 µM | 3.17 µM | 1.03 µM | > 32.5 µM | 1.14 µM | 15 µM | 1.77 µM | > 32.5 µM | 1.55 µM | 17.9 µM | 1.21 µM | > 32.5 µM
8 | CN(C)C1CN(C(=O)c2cc(-c3ccc4ncnc(N5CCc6cc(F)c(Cl)cc65)c4c3)cnc2N)C1 | 0.869 µM | > 100 µM | 0.586 µM | > 28.1 µM | 0.886 µM | > 100 µM | 0.687 µM | – | 0.254 µM | 0.832 µM | 0.583 µM | > 100 µM | 1.17 µM | > 100 µM | 0.223 µM | 1.23 µM | 0.299 µM | 5.52 µM | 0.819 µM | > 100 µM
9 | CCOc1ccc2c(c1)C(=O)c1c-2n(CCCN=[N+]=[N-])c(=O)c2cc([N+](=O)[O-])ccc12 | 51.7 µM | > 100 µM | 3 µM | 43.6 µM | 3.63 µM | > 100 µM | 39.4 µM | > 100 µM | 18.5 µM | 58.7 µM | 0.442 µM | 2.79 µM | 0.176 µM | 11.9 µM | 0.195 µM | 16.1 µM | 0.102 µM | 1.24 µM | 11.9 µM | > 100 µM
10 | NC1(C(=O)N[C@@H](CCO)c2ccc(Cl)cc2)CCN(c2ncnc3[nH]ccc23)CC1 | 1.69 µM and 7.47 µM | > 100 µM | 3.69 µM and 4.89 µM | > 100 µM | > 2.68 µM and 9.15 µM | > 81.4 µM | 2.34 µM and 4.94 µM | > 100 µM | 0.0709 µM and 0.135 µM | 0.522 µM and 0.939 µM | 0.499 µM and 1.18 µM | > 58.4 µM | 2.24 µM and 5.95 µM | > 10 µM and 39.5 µM | 0.102 µM and 0.27 µM | > 100 µM | 0.167 µM and 0.439 µM | > 76.8 µM | > 4.3 µM and 42.5 µM | > 100 µM
